According to patent US12077503B2, “Substituted cyclic amides and their use as herbicides” (FMC CORPORATION, priority 2015, dated 2024):

How the values were obtained:
Assay in all cases: Test G Pre-Emergence Protocol
Type in all cases: in vivo
corn (Zea mays) = conditions: Zea mays, pre-emergence, 312 h, evaluated after 13 days; for plant injury at 15.625 g/ha: 15.625 g ai/ha; for plant injury at 15.625 g/ha / plant injury at 250 g/ha: read-out: Corn damage rating (100=total damage to plant; 0=no damage to plant); for plant injury at 62.5 g/ha: 62.5 g ai/ha, 100=total damage to plant, 0=no damage to plant, read-out: plant damage rating, Corn; for plant injury at 250 g/ha: 250 g ai/ha
Outline: (§1)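 Pre-emergence spray, 15.625/62.5/250 g/ha, vehicle acetone:water 50:50 + 0.5% Tween 20, applied 1 d after sowing. Glasshouse 24/16° C, 14 h light, 65% RH, watered twice daily. Visual damage rating at 13 d, 0–100 scale.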

[1] = system: redroot pigweed (Amaranthus retroflexus); conditions: Amaranthus retroflexus, pre-emergence, 312 h, evaluated after 13 days; for pest or weed control at 15.625 g/ha: 15.625 g ai/ha; for pest or weed control at 15.625 g/ha / pest or weed control at 250 g/ha: read-out: Pigweed, Redroot damage rating (100=total damage to plant; 0=no damage to plant); for pest or weed control at 62.5 g/ha: 62.5 g ai/ha, 100=total damage to plant, 0=no damage to plant, read-out: plant damage rating, Pigweed, Redroot; for pest or weed control at 250 g/ha: 250 g ai/ha
Outline: as §1

[2] = system: ivy-leaved morning glory (Ipomoea hederacea); conditions: Ipomoea, pre-emergence, 312 h, evaluated after 13 days; for pest or weed control at 15.625 g/ha: 15.625 g ai/ha, read-out: Morning-glory, Ivy-leaved damage rating (100=total damage to plant; 0=no damage to plant); for pest or weed control at 62.5 g/ha: 62.5 g ai/ha, 100=total damage to plant, 0=no damage to plant, read-out: plant damage rating, Morningglory, Ivy-leaved; for pest or weed control at 250 g/ha: 250 g ai/ha, read-out: Morningglory, Ivy-leaved damage rating (100=total damage to plant; 0=no damage to plant)
Outline: as §1

[3] = system: barnyardgrass (Echinochloa crus-galli); conditions: Echinochloa crus-galli, pre-emergence, 312 h, evaluated after 13 days; for pest or weed control at 15.625 g/ha: 15.625 g ai/ha, read-out: Barnyard grass damage rating (100=total damage to plant; 0=no damage to plant); for pest or weed control at 62.5 g/ha: 62.5 g ai/ha, 100=total damage to plant, 0=no damage to plant, read-out: plant damage rating, Barnyardgrass; for pest or weed control at 250 g/ha: 250 g ai/ha, read-out: Barnyardgrass damage rating (100=total damage to plant; 0=no damage to plant)
Outline: as §1

[4] = system: giant foxtail (Setaria faberi); conditions: Setaria faberi, pre-emergence, 312 h, evaluated after 13 days; for pest or weed control at 15.625 g/ha: 15.625 g ai/ha; for pest or weed control at 15.625 g/ha / pest or weed control at 250 g/ha: read-out: Foxtail, Giant damage rating (100=total damage to plant; 0=no damage to plant); for pest or weed control at 62.5 g/ha: 62.5 g ai/ha, 100=total damage to plant, 0=no damage to plant, read-out: plant damage rating, Foxtail, Giant; for pest or weed control at 250 g/ha: 250 g ai/ha
Outline: as §1

[5] = system: velvetleaf (Abutilon theophrasti); conditions: Abutilon theophrasti, pre-emergence, 312 h, evaluated after 13 days; for pest or weed control at 15.625 g/ha: 15.625 g ai/ha; for pest or weed control at 15.625 g/ha / pest or weed control at 250 g/ha: read-out: Velvetleaf damage rating (100=total damage to plant; 0=no damage to plant); for pest or weed control at 62.5 g/ha: 62.5 g ai/ha, 100=total damage to plant, 0=no damage to plant, read-out: plant damage rating, Velvetleaf; for pest or weed control at 250 g/ha: 250 g ai/ha
Outline: as §1

## CN1C[C@@H](c2ccc(C(F)(F)F)cc2)[C@H](C(=O)Nc2ncc(C#N)s2)C1=O (racemic) [Compound 1528]
Corn (Zea mays)
  plant injury at 15.625 g/ha: 0%
  plant injury at 62.5 g/ha: 0%
  plant injury at 250 g/ha: 0%
[1]
  pest or weed control at 15.625 g/ha: 0%
  pest or weed control at 62.5 g/ha: 0%
  pest or weed control at 250 g/ha: 0%
[2]
  pest or weed control at 15.625 g/ha: 0%
  pest or weed control at 62.5 g/ha: 0%
  pest or weed control at 250 g/ha: 0%
[3]
  pest or weed control at 15.625 g/ha: 0%
  pest or weed control at 62.5 g/ha: 0%
  pest or weed control at 250 g/ha: 0%
[4]
  pest or weed control at 15.625 g/ha: 0%
  pest or weed control at 62.5 g/ha: 0%
  pest or weed control at 250 g/ha: 0%
[5]
  pest or weed control at 15.625 g/ha: 0%
  pest or weed control at 62.5 g/ha: 0%
  pest or weed control at 250 g/ha: 0%

## Cc1cc(NC(=O)[C@@H]2C(=O)N(C)C[C@H]2c2ccc(C(F)(F)F)cc2)n[nH]1 (racemic) [Compound 1532]
Corn (Zea mays)
  plant injury at 15.625 g/ha: 0%
  plant injury at 62.5 g/ha: 0%
  plant injury at 250 g/ha: 0%
[1]
  pest or weed control at 15.625 g/ha: 0%
  pest or weed control at 62.5 g/ha: 0%
  pest or weed control at 250 g/ha: 0%
[2]
  pest or weed control at 15.625 g/ha: 0%
  pest or weed control at 62.5 g/ha: 0%
  pest or weed control at 250 g/ha: 0%
[3]
  pest or weed control at 15.625 g/ha: 0%
  pest or weed control at 62.5 g/ha: 30%
  pest or weed control at 250 g/ha: 0%
[4]
  pest or weed control at 15.625 g/ha: 100%
  pest or weed control at 62.5 g/ha: 100%
  pest or weed control at 250 g/ha: 0%
[5]
  pest or weed control at 15.625 g/ha: 0%
  pest or weed control at 62.5 g/ha: 0%
  pest or weed control at 250 g/ha: 0%

## CN1C[C@@H](c2ccc(C(F)(F)F)cc2)[C@H](C(=O)Nc2cc[nH]n2)C1=O (racemic) [Compound 1533]
Corn (Zea mays)
  plant injury at 15.625 g/ha: 0%
  plant injury at 62.5 g/ha: 0%
  plant injury at 250 g/ha: 0%
[1]
  pest or weed control at 15.625 g/ha: 0%
  pest or weed control at 62.5 g/ha: 0%
  pest or weed control at 250 g/ha: 0%
[2]
  pest or weed control at 15.625 g/ha: 0%
  pest or weed control at 62.5 g/ha: 0%
  pest or weed control at 250 g/ha: 0%
[3]
  pest or weed control at 15.625 g/ha: 0%
  pest or weed control at 62.5 g/ha: 0%
  pest or weed control at 250 g/ha: 0%
[4]
  pest or weed control at 62.5 g/ha: 0%
  pest or weed control at 250 g/ha: 0%
[5]
  pest or weed control at 15.625 g/ha: 0%
  pest or weed control at 62.5 g/ha: 0%
  pest or weed control at 250 g/ha: 0%

## CN1C[C@@H](c2ccc(C(F)(F)F)cc2)[C@H](C(=O)Nc2nc[nH]n2)C1=O (racemic) [Compound 1534]
Corn (Zea mays)
  plant injury at 15.625 g/ha: 0%
  plant injury at 62.5 g/ha: 0%
  plant injury at 250 g/ha: 0%
[1]
  pest or weed control at 15.625 g/ha: 0%
  pest or weed control at 62.5 g/ha: 0%
  pest or weed control at 250 g/ha: 0%
[2]
  pest or weed control at 15.625 g/ha: 0%
  pest or weed control at 62.5 g/ha: 0%
  pest or weed control at 250 g/ha: 0%
[3]
  pest or weed control at 15.625 g/ha: 0%
  pest or weed control at 62.5 g/ha: 0%
  pest or weed control at 250 g/ha: 0%
[4]
  pest or weed control at 15.625 g/ha: 0%
  pest or weed control at 62.5 g/ha: 0%
  pest or weed control at 250 g/ha: 0%
[5]
  pest or weed control at 15.625 g/ha: 0%
  pest or weed control at 62.5 g/ha: 0%
  pest or weed control at 250 g/ha: 0%

## CN1C[C@@H](c2ccc(C(F)(F)F)cc2)[C@H](C(=O)Nc2cnccc2Cl)C1=O (racemic) [Compound 1541]
Corn (Zea mays)
  plant injury at 15.625 g/ha: 0%
  plant injury at 62.5 g/ha: 0%
  plant injury at 250 g/ha: 10%
[1]
  pest or weed control at 15.625 g/ha: 0%
  pest or weed control at 62.5 g/ha: 0%
  pest or weed control at 250 g/ha: 40%
[2]
  pest or weed control at 15.625 g/ha: 0%
  pest or weed control at 62.5 g/ha: 0%
  pest or weed control at 250 g/ha: 0%
[3]
  pest or weed control at 15.625 g/ha: 0%
  pest or weed control at 62.5 g/ha: 0%
  pest or weed control at 250 g/ha: 30%
[4]
  pest or weed control at 15.625 g/ha: 0%
  pest or weed control at 62.5 g/ha: 0%
  pest or weed control at 250 g/ha: 70%
[5]
  pest or weed control at 15.625 g/ha: 0%
  pest or weed control at 62.5 g/ha: 0%
  pest or weed control at 250 g/ha: 0%

## CN1C[C@@H](c2ccc(C(F)(F)F)cc2)[C@H](C(=O)Nc2ccc(C(F)(F)F)nc2Cl)C1=O (racemic) [Compound 1542]
Corn (Zea mays)
  plant injury at 15.625 g/ha: 0%
  plant injury at 62.5 g/ha: 0%
  plant injury at 250 g/ha: 0%
[1]
  pest or weed control at 15.625 g/ha: 0%
  pest or weed control at 62.5 g/ha: 0%
  pest or weed control at 250 g/ha: 0%
[2]
  pest or weed control at 62.5 g/ha: 0%
  pest or weed control at 250 g/ha: 0%
[3]
  pest or weed control at 15.625 g/ha: 0%
  pest or weed control at 62.5 g/ha: 10%
  pest or weed control at 250 g/ha: 10%
[4]
  pest or weed control at 15.625 g/ha: 0%
  pest or weed control at 62.5 g/ha: 10%
  pest or weed control at 250 g/ha: 10%
[5]
  pest or weed control at 15.625 g/ha: 0%
  pest or weed control at 62.5 g/ha: 0%
  pest or weed control at 250 g/ha: 0%
